# Reference: publication PMC4303209, “A novel phosphatidylinositol 3-kinase (PI3K) inhibitor directs a potent FOXO-dependent, p53-independent cell cycle arrest phenotype characterized by the differential induction of a subset of FOXO-regulated genes” (Breast Cancer Research : BCR, 2014)
# Tested on: MCF-7 breast cancer cells
# Test: Microarray gene expression analysis (Agilent whole human genome 4 x 44K; compound vs DMSO, LIMMA log2 fold change)
# Format: cell-based
# [1] = MCF-7, 100nM, six hours, 1.5-fold expression change threshold
structure (smiles),measurement,setting,value
Oc1cccc(-c2nc(N3CCOCC3)c3oc4ncccc4c3n2)c1 [PI-103],ESCO1 log2FC,"Gene 114799, cell cycle genes",0.45
same,UHRF2 log2FC,"Gene 115426, cell cycle genes",0.51
same,KLHDC3 log2FC,"Gene 116138, cell cycle genes",0.0341
same,CNTROB log2FC,"Gene 116840, cell cycle genes",0.23
same,NEDD1 log2FC,"Gene 121441, cell cycle genes",0.35
same,HEXIM2 log2FC,"Gene 124790, cell cycle genes",0.87
same,ARL8A log2FC,"Gene 127829, cell cycle genes",0.56
same,UHMK1 log2FC,"Gene 127933, cell cycle genes",-0.17
same,IQGAP3 log2FC,"Gene 128239, cell cycle genes",0.35
same,NUP35 log2FC,"Gene 129401, cell cycle genes",-0.36
same,MITD1 log2FC,"Gene 129531, cell cycle genes",0.71
same,NUDT16 log2FC,"Gene 131870, cell cycle genes",-0.23
same,ZFP42 log2FC,"Gene 132625, cell cycle genes",-0.0323
same,JMY log2FC,"Gene 133746, cell cycle genes",1.01
same,HUS1B log2FC,"Gene 135458, cell cycle genes",-0.84
same,NEK7 log2FC,"Gene 140609, cell cycle genes",0.11
same,CTCFL log2FC,"Gene 140690, cell cycle genes",-0.0211
same,PSMA8 log2FC,"Gene 143471, cell cycle genes",0.0738
same,SESN3 log2FC,"Gene 143686, cell cycle genes",0.12
same,PIWIL4 log2FC,"Gene 143689, cell cycle genes",0.27
same,E2F7 log2FC,"Gene 144455, cell cycle genes",-0.38
same,RAD9B log2FC,"Gene 144715, cell cycle genes",-0.00292
same,KCTD11 log2FC,"Gene 147040, cell cycle genes",0.28
same,PYHIN1 log2FC,"Gene 149628, cell cycle genes",-0.0139
same,PPP1R1C log2FC,"Gene 151242, cell cycle genes",0.09
same,SGOL2 log2FC,"Gene 151246, cell cycle genes",0.87
same,SGOL1 log2FC,"Gene 151648, cell cycle genes",0.42
same,ROPN1B log2FC,"Gene 152015, cell cycle genes",0.0015
same,DAB2IP log2FC,"Gene 153090, cell cycle genes",0.03
same,CDCA2 log2FC,"Gene 157313, cell cycle genes",0.46
same,ESCO2 log2FC,"Gene 157570, cell cycle genes",0.48
same,SASS6 log2FC,"Gene 163786, cell cycle genes",0.49
same,WBP2NL log2FC,"Gene 164684, cell cycle genes",-0.0843
same,THAP5 log2FC,"Gene 168451, cell cycle genes",0.10
same,FLCN log2FC,"Gene 201163, cell cycle genes",0.78
same,STRA13 log2FC,"Gene 201254, cell cycle genes",-0.39
same,TUBB log2FC,"Gene 203068, cell cycle genes",-0.55
same,REEP3 log2FC,"Gene 221035, cell cycle genes",-0.29
same,C6orf89 log2FC,"Gene 221477, cell cycle genes",-0.38
same,SPDYA log2FC,"Gene 245711, cell cycle genes",-0.01
same,CDC26 log2FC,"Gene 246184, cell cycle genes",-0.67
same,ASPM log2FC,"Gene 259266, cell cycle genes",1.14
same,SLC39A5 log2FC,"Gene 283375, cell cycle genes",0.05
same,GAS2L3 log2FC,"Gene 283431, cell cycle genes",0.53
same,NSMCE2 log2FC,"Gene 286053, cell cycle genes",0.84
same,LIN9 log2FC,"Gene 286826, cell cycle genes",1.23
same,TMPRSS11A log2FC,"Gene 339967, cell cycle genes",0.0013
same,NUP43 log2FC,"Gene 348995, cell cycle genes",0.24
same,APITD1 log2FC,"Gene 378708, cell cycle genes",0.07
same,SETD8 log2FC,"Gene 387893, cell cycle genes",-0.04
same,PIM3 log2FC,"Gene 415116, cell cycle genes",0.64
same,PIWIL3 log2FC,"Gene 440822, cell cycle genes",-0.09
same,"expression of FOXO-dependent apoptosis genes including TNFSF10, BCL211 and FASLG (array)",MCF-7,did not significantly change
same,number of differentially expressed genes,[1],"more than 2,000"
same,number of induced (upregulated) genes,[1],"1,293"
same,number of repressed (downregulated) genes,[1],886
same,"CCND1, SPRY2 and MMP9 expression (array)","MCF-7, FOXO target genes",significantly downregulated
same,"expression of CCNG2, KLHL24, DDIT3, CITED2 and RICTOR (array)","MCF-7, FOXO target genes",significantly upregulated
same,MAD1L1 log2FC,cell cycle genes,-0.14
same,ACSL5 log2FC,"gene ACSL5 (51703), apoptosis genes",0.058
same,log2FC,"gene ACTR1A (Gene 10121), cell cycle genes",-0.13
same,ADAMTS20 log2FC,"gene ADAMTS20 (80070), apoptosis genes",-0.005
same,ADIPOQ log2FC,"gene ADIPOQ (9370), apoptosis genes",-0.040
same,ADRA1A log2FC,"gene ADRA1A (148), apoptosis genes",0.010
same,AGTR2 log2FC,"gene AGTR2 (186), apoptosis genes",0.044
same,log2FC AKAP8,"gene AKAP8 (Gene 10270), cell cycle genes",-0.20
same,ALB log2FC,"gene ALB (213), apoptosis genes",-0.044
same,ALOX12 log2FC,"gene ALOX12 (239), apoptosis genes",-0.144
same,ALX3 log2FC,"gene ALX3 (257), apoptosis genes",0.013
same,ALX4 log2FC,"gene ALX4 (60529), apoptosis genes",-0.036
same,log2FC,"gene ANAPC13 (Gene 25847), cell cycle genes",-0.30
same,ANKRD13C log2FC,"gene ANKRD13C (81573), apoptosis genes",-0.007
same,APBB1 log2FC,"gene APBB1 (322), apoptosis genes",0.356
same,APOH log2FC,"gene APOH (350), apoptosis genes",0.052
same,AQP1 log2FC,"gene AQP1 (358), apoptosis genes",-0.011
same,ARHGAP10 log2FC,"gene ARHGAP10 (79658), apoptosis genes",-0.061
same,ARHGEF6 log2FC,"gene ARHGEF6 (9459), apoptosis genes",-0.152
same,ARHGEF16 log2FC,"gene ARHGEF16 (27237), apoptosis genes",0.275
same,ARHGEF18 log2FC,"gene ARHGEF18 (23370), apoptosis genes",-0.106
same,ATOH1 log2FC,"gene ATOH1 (474), apoptosis genes",-0.042
same,ATPIF1 log2FC,"gene ATPIF1 (93974), apoptosis genes",0.131
same,log2FC,"gene ATR (Gene 545), cell cycle genes",0.11
same,log2FC,"gene BAD (Gene 572), cell cycle genes",0.53
same,BCL2L10 log2FC,"gene BCL2L10 (10017), apoptosis genes",-0.066
same,BDKRB2 log2FC,"gene BDKRB2 (624), apoptosis genes",-0.025
same,BIRC2 log2FC,"gene BIRC2 (329), apoptosis genes",-0.339
same,BIRC8 log2FC,"gene BIRC8 (112401), apoptosis genes",-0.038
same,BMP2 log2FC,"gene BMP2 (650), apoptosis genes",-0.233
same,log2FC,"gene BMP4 (Gene 652), cell cycle genes",0.22
same,BMP5 log2FC,"gene BMP5 (653), apoptosis genes",-0.019
same,BOK log2FC,"gene BOK (666), apoptosis genes",0.093
same,log2FC,"gene BRE (Gene 9577), cell cycle genes",-0.21
same,BTK log2FC,"gene BTK (695), apoptosis genes",0.086
same,log2FC,"gene BUB1B (Gene 701), cell cycle genes",0.15
same,C1QBP log2FC,"gene C1QBP (708), apoptosis genes",-0.112
same,C3orf38 log2FC,"gene C3orf38 (285237), apoptosis genes",-0.159
same,log2FC,"gene CAMK2B (Gene 816), cell cycle genes",0.01
same,CAPN3 log2FC,"gene CAPN3 (825), apoptosis genes",-0.026
same,log2FC CAPN3,"gene CAPN3 (Gene 825), cell cycle genes",-0.0259
same,CARD9 log2FC,"gene CARD9 (64170), apoptosis genes",0.028
same,CARD14 log2FC,"gene CARD14 (79092), apoptosis genes",0.056
same,log2FC,"gene CASP3 (Gene 836), cell cycle genes",0.31
same,CASP10 log2FC,"gene CASP10 (843), apoptosis genes",0.088
same,CASP12 log2FC,"gene CASP12 (120329), apoptosis genes",0.062
same,CCK log2FC,"gene CCK (885), apoptosis genes",-0.021
same,CCL19 log2FC,"gene CCL19 (6363), apoptosis genes",0.205
same,log2FC,"gene CCNB2 (Gene 9133), cell cycle genes",0.20
same,log2FC,"gene CCNH (Gene 902), cell cycle genes",0.14
same,log2FC,"gene CCNT2 (Gene 905), cell cycle genes",0.14
same,CD38 log2FC,"gene CD38 (952), apoptosis genes",0.042
same,CD40LG log2FC,"gene CD40LG (959), apoptosis genes",-0.017
same,CD248 log2FC,"gene CD248 (57124), apoptosis genes",0.046
same,log2FC,"gene CDC73 (Gene 79577), cell cycle genes",0.33
same,CDH1 log2FC,"gene CDH1 (999), apoptosis genes",0.556
same,log2FC CDH13,"gene CDH13 (Gene 1012), cell cycle genes",0.0463
same,log2FC CDK2AP1,"gene CDK2AP1 (Gene 8099), cell cycle genes",-0.15
same,CDK5 log2FC,"gene CDK5 (1020), apoptosis genes",0.184
same,log2FC CDK5RAP1,"gene CDK5RAP1 (Gene 51654), cell cycle genes",0.0451
same,log2FC CDKN2B,"gene CDKN2B (Gene 1030), cell cycle genes",-0.0758
same,log2FC,"gene CENPJ (Gene 55835), cell cycle genes",0.11
same,log2FC,"gene CENPK (Gene 64105), cell cycle genes",0.33
same,log2FC,"gene CETN3 (Gene 1070), cell cycle genes",0.33
same,log2FC,"gene CHEK2 (Gene 11200), cell cycle genes",0.11
same,CHIA log2FC,"gene CHIA (27159), apoptosis genes",-0.110
same,CIDEA log2FC,"gene CIDEA (1149), apoptosis genes",-0.071
same,CLC log2FC,"gene CLC (1178), apoptosis genes",-0.00153
same,CLEC5A log2FC,"gene CLEC5A (23601), apoptosis genes",-0.040
same,CLSPN log2FC,"gene CLSPN (63967), apoptosis genes",-0.114
same,CNTFR log2FC,"gene CNTFR (1271), apoptosis genes",-0.050
same,COL2A1 log2FC,"gene COL2A1 (1280), apoptosis genes",-0.00236
same,COL4A3 log2FC,"gene COL4A3 (1285), apoptosis genes",0.543
same,COMP log2FC,"gene COMP (1311), apoptosis genes",-0.113
same,log2FC,"gene COPS5 (Gene 10987), cell cycle genes",0.16
same,log2FC,"gene CRLF3 (Gene 51379), cell cycle genes",0.14
same,log2FC,"gene CSNK2B (Gene 1460), cell cycle genes",-0.06
same,CST3 log2FC,"gene CST3 (1471), apoptosis genes",0.253
same,CTLA4 log2FC,"gene CTLA4 (1493), apoptosis genes",0.009
same,CXCR4 log2FC,"gene CXCR4 (7852), apoptosis genes",0.375
same,CYR61 log2FC,"gene CYR61 (3491), apoptosis genes",-0.258
same,DAPK2 log2FC,"gene DAPK2 (23604), apoptosis genes",-1.207
same,DAXX log2FC,"gene DAXX (1616), apoptosis genes",-0.040
same,log2FC DAXX,"gene DAXX (Gene 1616), cell cycle genes",-0.04
same,log2FC,"gene DCLRE1B (Gene 64858), cell cycle genes",-0.35
same,log2FC,"gene DDX11 (Gene 1663), cell cycle genes",-0.27
same,DDX47 log2FC,"gene DDX47 (51202), apoptosis genes",-0.196
same,DEDD2 log2FC,"gene DEDD2 (162989), apoptosis genes",0.214
same,DFFB log2FC,"gene DFFB (1677), apoptosis genes",-0.041
same,log2FC,"gene DIAPH2 (Gene 1730), cell cycle genes",0.38
same,log2FC DIRAS3,"gene DIRAS3 (Gene 9077), cell cycle genes",0.0278
same,DMPK log2FC,"gene DMPK (1760), apoptosis genes",0.273
same,DNM2 log2FC,"gene DNM2 (1785), apoptosis genes",0.271
same,DPF1 log2FC,"gene DPF1 (8193), apoptosis genes",-0.250
same,log2FC ECD,"gene ECD (Gene 11319), cell cycle genes",-0.23
same,EGR3 log2FC,"gene EGR3 (1960), apoptosis genes",0.187
same,EGR4 log2FC,"gene EGR4 (1961), apoptosis genes",0.222
same,ELMO1 log2FC,"gene ELMO1 (9844), apoptosis genes",0.209
same,EPB41L3 log2FC,"gene EPB41L3 (23136), apoptosis genes",0.039
